From US20260265246A1 (ICAHN SCHOOL OF MEDICINE AT MOUNT SINAI, priority 2021, published 2026)
Like-named read-outs stand apart in the source and are kept apart here.

Legend:
5HT2A receptor [1] = biological target: T1, 5HT2A receptor (Homo sapiens, UniProt P28223); test: biochemical; type: binding; parameters: expressed in transfected cells; crude membranes
5HT2A receptor [2] = biological target: T1, 5HT2A receptor; test: cell-based; parameters: expressed in transfected cells; host or cells: HEK293T cells, transient co-transfection; details: for Emax: HEK-293T
5HT2A receptor [3] = biological target: T1, 5HT2A receptor; test: cell-based; parameters: expressed in transfected cells; host or cells: HEK293T cells, transient co-transfection; details: for Emax: HEK-293T; remark: listed apart in the source
[4] = 5HT2A Ki (nM), secondary binding assay, Cheng-Prusoff
[5] = 5HT2A β-Arr EC50 (nM), BRET1 beta-arrestin2 recruitment, HEK293T
[6] = BRET1 beta-arrestin2 recruitment, HEK293T, normalized to 5-HT, read-out: 5HT2A β-Arr Emax (%)
[7] = 5HTA Gq EC50 (nM), BRET2 Gαq dissociation, HEK293T
[8] = BRET2 Gαq dissociation, HEK293T, normalized to 5-HT, read-out: 5HTA Gq Emax (%)
[9] = BRET2 Gαq dissociation, HEK293T, read-out: 5HTA Gq EC50
[10] = 5HT2A Ki (nM), secondary radioligand binding, Ki from IC50 by Cheng-Prusoff
[11] = 5HT2A β-Arr EC50 (nM), BRET1 beta-arrestin2 recruitment, HEK293T cells
[12] = BRET1 beta-arrestin2 recruitment, HEK293T cells, normalized to 5-HT, read-out: 5HT2A β-Arr Emax (%)
[13] = 5HT2A Gq EC50 (nM), BRET2 Gαq dissociation, HEK293T cells
[14] = BRET2 Gαq dissociation, HEK293T cells, normalized to 5-HT, read-out: 5HT2A Gq Emax (%)
[15] = read-out: 5HT2A β-Arr Emax (%), BRET1 beta-arrestin2 recruitment, HEK293T, normalized to 5-HT
[16] = read-out: 5HTA Gq Emax (%), BRET2 Gαq dissociation, HEK293T, normalized to 5-HT
[17] = BRET1 beta-arrestin2 recruitment, HEK293T cells, read-out: 5HT2A β-Arr EC50
[18] = BRET2 Gαq dissociation, HEK293T cells, read-out: 5HT2A Gq EC50
[19] = secondary binding assay, Cheng-Prusoff, read-out: 5HT2A Ki

T1 sequence (P28223 whole entry): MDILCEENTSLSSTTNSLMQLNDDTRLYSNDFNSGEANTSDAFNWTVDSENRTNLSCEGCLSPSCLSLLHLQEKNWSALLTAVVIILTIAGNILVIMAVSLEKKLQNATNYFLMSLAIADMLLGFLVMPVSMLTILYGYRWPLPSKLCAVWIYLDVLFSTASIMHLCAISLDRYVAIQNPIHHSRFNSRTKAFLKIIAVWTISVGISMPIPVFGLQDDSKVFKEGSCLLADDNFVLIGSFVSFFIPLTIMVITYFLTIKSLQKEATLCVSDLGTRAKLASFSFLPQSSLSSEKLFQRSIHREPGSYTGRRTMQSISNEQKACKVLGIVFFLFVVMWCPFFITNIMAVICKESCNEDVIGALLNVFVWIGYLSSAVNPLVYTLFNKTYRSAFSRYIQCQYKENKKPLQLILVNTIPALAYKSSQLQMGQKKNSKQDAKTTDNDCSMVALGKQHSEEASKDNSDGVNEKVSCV

| SMILES | Ki (5HT2A receptor [1]; [4]) | EC50 (5HT2A receptor [3]; [7]) | Emax (5HT2A receptor [3]; [8]) | Ki (5HT2A receptor [1]; [10]) | EC50 (5HT2A receptor [2]; [11]) | Emax (5HT2A receptor [2]; [12]) | EC50 (5HT2A receptor [3]; [13]) | Emax (5HT2A receptor [3]; [14]) | further results |
| --- | --- | --- | --- | --- | --- | --- | --- | --- | --- |
| Cc1cccc2c(C34CNCC3C4)c[nH]c12 (stereo not drawn) [Example 272, 3-(3-azabicyclo[3.1.0]hexan-1-yl)-7-methyl-1H-indole] | 890 nM | 100 nM | 89.5% | – | – | – | – | – | EC50 (5HT2A receptor [2]; [5]): 1500 nM; Emax (5HT2A receptor [2]; [6]): 38% |
| CCCN1CCC=C(c2c[nH]c3c(C)cc(F)cc23)C1 [Example 161, 5-fluoro-7-methyl-3-(1-propyl-1,2,5,6-tetrahydropyridin-3-yl)-1H-indole] | 488 nM | – | 93.2% | – | – | – | – | – | EC50 (5HT2A receptor [2]; [5]): 311 nM; Emax (5HT2A receptor [2]; [6]): 35.2%; EC50 (5HT2A receptor [3]; [9]): 84.1 nM |
| Cc1ccc2c(C3=CCCNC3)n[nH]c2c1 [Example 76, 6-methyl-3-(1,2,5,6-tetrahydropyridin-3-yl)-1H-indazole] | – | – | – | 2460 nM | 1500 nM | 88.7% | 118 nM | 93.6% | – |
| N#Cc1ccc2c(C3=CCCNC3)n[nH]c2c1 [Example 79, 3-(1,2,5,6-tetrahydropyridin-3-yl)-1H-indazole-6-carbonitrile] | – | – | – | 441 nM | 1710 nM | 82.1% | 874 nM | 48.6% | – |
| Clc1cccc2c(C3=CCCN(C4CC4)C3)n[nH]c12 [Example 166, 7-chloro-3-(1-cyclopropyl-1,2,5,6-tetrahydropyridin-3-yl)-1H-indazole] | 307 nM | 47.1 nM | – | – | – | – | – | – | EC50 (5HT2A receptor [2]; [5]): 120 nM; Emax (5HT2A receptor [2]; [15]): 24.9%; Emax (5HT2A receptor [3]; [16]): 64% |
| CCc1cccc2c(C3=CCCNC3)n[nH]c12 [Example 121, 7-ethyl-3-(1,2,5,6-tetrahydropyridin-3-yl)-1H-indazole] | – | – | – | 422 nM | – | 85.7% | – | 103% | EC50 (5HT2A receptor [2]; [17]): 75.8 nM; EC50 (5HT2A receptor [3]; [18]): 20.2 nM |
| Clc1cccc2c(C3CCCNC3)n[nH]c12 (stereo not drawn) [Example 114, 7-chloro-3-(piperidin-3-yl)-1H-indazole] | – | – | – | 1240 nM | 468 nM | – | 290 nM | – | Emax (5HT2A receptor [2]; read-out: 5HT2A β-Arr Emax (%), BRET1 beta-arrestin2 recruitment, HEK293T cells, normalized to 5-HT): 29.3%; Emax (5HT2A receptor [3]; read-out: 5HT2A Gq Emax (%), BRET2 Gαq dissociation, HEK293T cells, normalized to 5-HT): 74.5% |
| Cc1ccnc2[nH]cc(C3=CCCN(C)C3)c12 [Example 13, 4-methyl-3-(1-methyl-1,2,5,6-tetrahydropyridin-3-yl)-1H-pyrrolo[2,3-b]pyridine] | – | – | – | – | – | 38.9% | – | 68.7% | Ki (5HT2A receptor [1]; secondary radioligand binding, Ki from IC50 by Cheng-Prusoff, read-out: 5HT2A Ki): 63.5 nM; EC50 (5HT2A receptor [2]; [17]): 765 nM; EC50 (5HT2A receptor [3]; [18]): 106 nM |
| Fc1cc(Cl)c2[nH]cc(C34CNCC3C4)c2c1 (stereo not drawn) [Example 279, 3-(3-azabicyclo[3.1.0]hexan-1-yl)-7-chloro-5-fluoro-1H-indole] | 75.2 nM | 110 nM | – | – | – | – | – | – | EC50 (5HT2A receptor [2]; [5]): 380 nM; Emax (5HT2A receptor [2]; [15]): 60.9%; Emax (5HT2A receptor [3]; [16]): 98.6% |
| Clc1cccc2c(C34CNCC3C4)c[nH]c12 (stereo not drawn) [Example 270, 3-(3-azabicyclo[3.1.0]hexan-1-yl)-7-chloro-1H-indole] | 134 nM | – | 93.8% | – | – | – | – | – | EC50 (5HT2A receptor [2]; [5]): 822 nM; Emax (5HT2A receptor [2]; [6]): 21.2%; EC50 (5HT2A receptor [3]; [9]): 29.8 nM |
| N#Cc1ccc2[nH]nc(C3=CCCNC3)c2c1 [Example 86, 3-(1,2,5,6-tetrahydropyridin-3-yl)-1H-indazole-5-carbonitrile] | – | – | – | 370 nM | 354 nM | 95.1% | – | 90.2% | EC50 (5HT2A receptor [3]; [18]): 15.9 nM |
| Cc1ccnc2[nH]cc(C3=CCCNC3)c12 [Example 9, 4-methyl-3-(1,2,5,6-tetrahydropyridin-3-yl)-1H-pyrrolo[2,3-b]pyridine] | – | – | – | 8510 nM | 749 nM | 72.8% | 489 nM | 74.2% | – |
| CN1CCC=C(c2c[nH]c3ncc(-c4ccccc4)cc23)C1 [Example 8, 3-(1-methyl-1,2,5,6-tetrahydropyridin-3-yl)-5-phenyl-1H-pyrrolo[2,3-b]pyridine] | – | – | – | 156 nM | 811 nM | 58.3% | 67 nM | 95.5% | – |
| CN1CC=C(c2n[nH]c3c(Cl)cccc23)C1 [Example 207, 7-chloro-3-(1-methyl-2,5-dihydro-1H-pyrrol-3-yl)-1H-indazole] | 203 nM | – | 94.7% | – | – | – | – | – | EC50 (5HT2A receptor [2]; [5]): 129 nM; Emax (5HT2A receptor [2]; [6]): 47.8%; EC50 (5HT2A receptor [3]; [9]): 50.9 nM |
| CN1CCC=C(c2c[nH]c3c(Cl)c(F)ccc23)C1 [Example 128, 7-chloro-6-fluoro-3-(1-methyl-1,2,5,6-tetrahydropyridin-3-yl)-1H-indole] | – | – | 89.2% | – | – | – | – | – | Ki (5HT2A receptor [1]; [19]): 15.3 nM; EC50 (5HT2A receptor [2]; BRET1 beta-arrestin2 recruitment, HEK293T, read-out: 5HT2A β-Arr EC50): 66.1 nM; Emax (5HT2A receptor [2]; [6]): 56.5%; EC50 (5HT2A receptor [3]; [9]): 11.9 nM |
| CN1CCC=C(c2c[nH]c3cc(Cl)ccc23)C1 [Example 32, 6-chloro-3-(1-methyl-1,2,5,6-tetrahydropyridin-3-yl)-1H-indole] | – | – | – | 236 nM | 709 nM | 45.5% | 304 nM | 77.5% | – |
| Cc1cccc2c(C34CNCC3C4)n[nH]c12 (stereo not drawn) [Example 186, 3-(3-azabicyclo[3.1.0]hexan-1-yl)-7-methyl-1H-indazole] | 748 nM | 231 nM | 98.8% | – | – | – | – | – | EC50 (5HT2A receptor [2]; [5]): 481 nM; Emax (5HT2A receptor [2]; [6]): 46.9% |
| CN1CCC=C(c2c[nH]c3cccc(-c4ccccc4)c23)C1 [Example 21, 3-(1-methyl-1,2,5,6-tetrahydropyridin-3-yl)-4-phenyl-1H-indole] | – | – | – | 14 nM | 358 nM | 15.1% | 874 nM | 59.6% | – |
| CN1CCC=C(c2c[nH]c3nccc(F)c23)C1 [Example 117, 4-fluoro-3-(1-methyl-1,2,5,6-tetrahydropyridin-3-yl)-1H-pyrrolo[2,3-b]pyridine] | – | – | – | 1360 nM | 865 nM | 51.1% | 253 nM | 110% | – |
| Clc1cnc2[nH]cc(C3=CCCNC3)c2c1 [Example 3, 5-chloro-3-(1,2,5,6-tetrahydropyridin-3-yl)-1H-pyrrolo[2,3-b]pyridine] | – | – | – | 143 nM | 229 nM | 43.8% | 29.4 nM | 82% | – |
| C=CCc1cccc2c(C3=CCCN(C)C3)c[nH]c12 [Example 257, 7-allyl-3-(1-methyl-1,2,5,6-tetrahydropyridin-3-yl)-1H-indole] | – | – | 90.7% | – | – | – | – | – | Ki (5HT2A receptor [1]; [19]): 97 nM; EC50 (5HT2A receptor [2]; [5]): 105 nM; Emax (5HT2A receptor [2]; [6]): 52.1%; EC50 (5HT2A receptor [3]; [9]): 44.9 nM |
| CN1CCC=C(c2c[nH]c3nccc(-c4ccccc4)c23)C1 [Example 16, 3-(1-methyl-1,2,5,6-tetrahydropyridin-3-yl)-4-phenyl-1H-pyrrolo[2,3-b]pyridine] | – | – | – | 164 nM | 2140 nM | 49.6% | – | – | – |
| CCc1[nH]c2ccccc2c1C1=CCCN(C)C1 [Example 65, 2-ethyl-3-(1-methyl-1,2,5,6-tetrahydropyridin-3-yl)-1H-indole] | – | – | – | 221 nM | – | – | 124 nM | 51.2% | – |
| Cc1cccc2c(C34CNCCC3C4)c[nH]c12 (stereo not drawn) [Example 271, 3-(3-azabicyclo[4.1.0]heptan-1-yl)-7-methyl-1H-indole] | 3150 nM | 327 nM | 80.1% | – | – | – | – | – | – |
| CCCc1cccc2c(C3=CCCN(C)C3)c[nH]c12 [Example 244, 3-(1-methyl-1,2,5,6-tetrahydropyridin-3-yl)-7-propyl-1H-indole] | 1550 nM | 397 nM | – | – | – | – | – | – | Emax (5HT2A receptor [3]; [16]): 77.2% |
| CCCN1CCC2CC2(c2n[nH]c3c(Cl)cccc23)C1 (stereo not drawn) [Example 182, 7-chloro-3-(3-propyl-3-azabicyclo[4.1.0]heptan-1-yl)-1H-indazole] | 2470 nM | 786 nM | 78.9% | – | – | – | – | – | – |
| Clc1cccc2c(C3=CCNCC3)n[nH]c12 [Example 241, 7-chloro-3-(1,2,3,6-tetrahydropyridin-4-yl)-1H-indazole] | 376 nM | – | 63.4% | – | – | – | – | – | EC50 (5HT2A receptor [3]; [9]): 65 nM |
| Cn1cc(C2=CCCNC2)c2cccnc21 [Example 47, 1-methyl-3-(1,2,5,6-tetrahydropyridin-3-yl)-1H-pyrrolo[2,3-b]pyridine] | – | – | – | 796 nM | – | – | 379 nM | 48.7% | – |
| CCC(C)N1CCC=C(c2n[nH]c3c(Cl)cccc23)C1 (stereo not drawn) [Example 167, 3-(1-(sec-butyl)-1,2,5,6-tetrahydropyridin-3-yl)-7-chloro-1H-indazole] | 525 nM | 173 nM | 25.7% | – | – | – | – | – | – |
| Clc1cccc2c(C34CCNCC3C4)n[nH]c12 (stereo not drawn) [Example 228, 3-(3-azabicyclo[4.1.0]heptan-6-yl)-7-chloro-1H-indazole] | 5240 nM | 1070 nM | 76.4% | – | – | – | – | – | – |
